Results on five compounds are retold here after PMC4830886, “Extended evaluation on the ES-D3 cell differentiation assay combined with the BeWo transport model, to predict relative developmental toxicity of triazole compounds” (Archives of Toxicology, 2015).

This data set deals with time-mated Wistar rats. In words: in vivo maternal and prenatal developmental toxicity screening study (OECD 414 principles). The note with it: rat. The source says:
The major differences to a full guideline study were the smaller sample size, using 9–10 instead of at least 16 pregnant rats, per test substance.
The animals were paired by the breeder [time-mated Wistar rats, Crl: WI (Han), Charles River Laboratories, Sulzfeld, Germany], between 10 and 12 weeks of age, and supplied on the day of evidence of mating; this day is referred to as gestational day (GD) 0 and following day as GD 1. […] This strain has been extensively used, both in our laboratory and elsewhere, and is sensitive to reproductive toxicants. All rats were housed individually in Makrolon cages with Lignocel PS 14 fibers dust-free bedding and wooden enrichment blocks. The cages were kept in climate-controlled rooms at 20–24 °C with a relative humidity of 30–70 %, an air exchange rate of 15 times per hour and a 12-h light/dark cycle. Diet (Ground Kliba SA, Switzerland) and tap water were provided ad libitum. In-life data (mortality, clinical signs, body weights and food consumption) were recorded throughout the study, but presented only if relevant for the interpretation of prenatal developmental effects.
The test compounds administered by gavage were administrated between 100 and 600 mg/kg bw/day using the vehicle 1 % carboxymethylcellulose in deionized water. The standard dose volume was 10 ml/kg bw.
On GD 20, the surviving dams were anesthetized with isoflurane, killed by decapitation and examined macroscopically. For each dam, the uterus was opened and the number, distribution and classification of implantation sites (live fetus, early and late fetal resorptions, and dead fetus) were determined. The fetuses were removed, sexed and fetal body weight determined. Gross pathological examination of the fetuses, including assessment of abnormalities of the fetal membranes, placentas, amniotic fluid and umbilical cord, was performed. Subsequently, all fetuses were killed by injection of pentobarbital. […] The other half of the fetuses of each dam was fixed in Harrison’s fluid. […] A permanent structural change that is likely to affect adversely the survival or health was assessed as malformation. A change that also occurs in the fetuses of control animals and/or is unlikely to affect adversely the survival or health was assessed as variation. This includes delays in growth or morphogenesis that have otherwise followed a normal pattern of development.
Maternal toxicity was classified as slight if body weight and/or carcass weight reduction is not above 10 %, moderate if body weight and/or carcass weight reduction is between 10 and 20 % and severe if body weight and/or carcass weight reduction is above 20 %. All the in vivo data are expressed as the affected fetuses/litter.

[1] abbreviates: gavage GD 6–19, 200 mg/kg, affected fetuses/litter.
The mark [2] stands for this setting: gavage GD 6–19, 600 mg/kg, affected fetuses/litter.
[3] abbreviates: 1 = highest potential, 6 = lowest, among the six test compounds.
The mark [4] stands for this setting: female, Wistar Crl:WI(Han), in vivo.
[5] abbreviates: gavage GD 6–19, 100 mg/kg, affected fetuses/litter.

Marks after values point to notes of the source that are not given here.

`CC(c1nc(-c2ccc(C#N)cc2)cs1)C(O)(Cn1cncn1)c1ccc(F)cc1` (centres unmarked) [compound 0596, 4-{2-[2-(4-Fluoro-phenyl)-2-hydroxy-1-methyl-3-[1,2,4]triazol-1-yl-propyl]-thiazol-4-yl}-benzonitrile]: for the setting “gavage GD 6–19, 200 mg/kg”, the “Early resorption (%)” value is given as 2.9%, the “Fetal weight (%)” value is 108%, the “Late resorption (%)” value is given as 0.0% and the Maternal toxicity classification result is “No”. Where the note is “gavage GD 6–19, 200 mg/kg”, the Maternal toxicity findings result is given as “NAD”, the “Placenta weight (%)” value was 127** %, the “Postimplantation loss (%)” value was determined as 2.9% and the “Total number of fetuses” value is reported as 109. In addition, under setting [1], the Misshapen basisphenoid was 30.6%, the Misshapen cervical arch was determined as 14.3% and the “Severely malformed skull bones” value is reported as 5.3%. In addition, for the setting “gavage GD 6–19, 600 mg/kg”, the “Early resorption (%)” value was 7.7%, the “Fetal weight (%)” value was 105%, the “Late resorption (%)” value stood at 0.8% and the Maternal toxicity classification entry is on record as “No”. Under “gavage GD 6–19, 600 mg/kg”, the Maternal toxicity findings entry is “NAD”, the “Placenta weight (%)” value came out at 133%, the “Postimplantation loss (%)” value is 8.6% and the “Total number of fetuses” value is 102. In addition, under setting [2], the “Malformation, Total (skeletal)” value is “Total 100 %**”; the Misshapen basisphenoid is reported as 13%; the Misshapen cervical arch is recorded as 70.2%; the “Severely malformed skull bones” value is 82.8%. The “Ranking (in vivo prenatal developmental toxicity potency)” value (shortened to “Ranking”) under setting [3] came out at 2.
In the case of `CC1CC(C)OC(Cn2cncn2)(c2ccc(Oc3ccc(Cl)cc3)cc2Cl)O1` (centres unmarked) [compound 0600, 1-[[2-[2-Chloro-4-(4-chlorophenoxy)phenyl]-4,6-dimethyl-1,3-dioxan-2-yl]methyl]-1,2,4-triazole], under setting [4], the “Ranking” value stood at 3. For the same compound, where the note is “gavage GD 6–19, 200 mg/kg”, the “Early resorption (%)” value turned out to be 4.0%, the “Fetal weight (%)” value was 102%, the “Late resorption (%)” value worked out at 0.0% and the Maternal toxicity classification entry is given as “No”. Moreover, for the setting “gavage GD 6–19, 200 mg/kg”, the Maternal toxicity findings entry is given as “NAD”, the “Placenta weight (%)” value was determined as 105%, the “Postimplantation loss (%)” value came out at 4.0% and the “Total number of fetuses” value is listed as 99. The “Malformation, Total (skeletal)” value under setting [1] is “Total 0%”. Besides, where the note is “gavage GD 6–19, 600 mg/kg”, the “Early resorption (%)” value came out at 6.0%, the “Fetal weight (%)” value is 102%, the “Late resorption (%)” value was 1.0% and the “Placenta weight (%)” value is given as 130%. Further, under “gavage GD 6–19, 600 mg/kg”, the “Postimplantation loss (%)” value is recorded as 7.0% and the “Total number of fetuses” value amounted to 104. Under setting [2], the “Malformation, CP (cleft palate)” value is 5%; the “Malformation, Total (skeletal)” value was determined as 81%; the Misshapen pterygoid bones was determined as 36.3%; the Small tuberositas deltoidea came out at 48.1%.
For `OC(c1cccnc1)c1c(-c2ccc(F)cc2F)noc1-c1ccc(Cl)cc1F` (centres unmarked) [compound 0594, [5-(4-Chloro-2-fluoro-phenyl)-3-(2,4-difluoro-phenyl)-isoxazol-4-yl]-pyridin-3-yl-methanol], the “Ranking” value under setting [4] came to 4. Further, for the setting “gavage GD 6–19, 200 mg/kg”, the “Early resorption (%)” value came out at 5.9%, the “Fetal weight (%)” value worked out at 107%, the “Late resorption (%)” value stood at 1.9% and the Maternal toxicity classification entry is given as “No”. Further, under “gavage GD 6–19, 200 mg/kg”, the Maternal toxicity findings entry was “No”, the “Placenta weight (%)” value was 110%, the “Postimplantation loss (%)” value was 7.8% and the “Total number of fetuses” value was 99. For the same compound, for the setting “gavage GD 6–19, 600 mg/kg”, the “Early resorption (%)” value was 14.1%, the “Fetal weight (%)” value amounted to 101%, the “Late resorption (%)” value amounted to 0.8% and the “Placenta weight (%)” value is reported as 116%. Where the note is “gavage GD 6–19, 600 mg/kg”, the “Postimplantation loss (%)” value stood at 14.9% and the “Total number of fetuses” value worked out at 98. Besides, the Bent femur result under setting [2] is reported as “Bent femur 12.5%”.
`CC(c1nc(-c2ccc(C#N)cc2)cs1)C(O)(Cn1ccnc1)c1ccc(F)cc1` (centres unmarked) [compound 0599, 4-[2-[2-(4-Fluorophenyl)-2-hydroxy-3-imidazol-1-yl-1-methyl-propyl]thiazol-4-yl]benzonitrile]: for the setting “gavage GD 6–19, 100 mg/kg”, the “Early resorption (%)” value was 7.8%, the “Fetal weight (%)” value was found to be 102%, the “Late resorption (%)” value amounted to 0.8% and the “Maternal carcass weight (CW)” value was determined as 91%. For the same compound, where the note is “gavage GD 6–19, 100 mg/kg”, the “Placenta weight (%)” value is on record as 116%, the “Postimplantation loss (%)” value turned out to be 8.6% and the “Total number of fetuses” value worked out at 99. Moreover, the “Maternal body weight change BWC (6–8)” value (gavage GD 6–19, 100 mg/kg, GD 6–8) is recorded as 66%. In addition, the “Maternal food consumption FC (6–20)” value (gavage GD 6–19, 100 mg/kg, GD 6–20) is listed as more than 74%. For the same compound, under setting [5], the “Malformation, CP (cleft palate)” value was 10%; the “Malformation, Total (skeletal)” value was determined as 100%; the Misshapen basisphenoid is recorded as 74.2%; the Misshapen temporal bone was determined as 85.4%. The compound further returned a Small tuberositas deltoidea under setting [5] of 66.3%. For the same compound, where the note is “gavage GD 6–19, 250 mg/kg”, the Maternal mortality result is on record as “Mortality 100 %**” and the “Total number of fetuses” value was determined as 0. The “Ranking” value under setting [3] worked out at 1.
With `OC(c1cccnc1)c1c(-c2ccc(F)cc2F)csc1-c1ccc(F)cc1F` (centres unmarked) [compound 0595, [2,4-Bis-(2,4-difluoro-phenyl)-thiophen-3-yl]-pyridin-3-yl-methanol], the “Ranking” value under setting [4] is listed as 6. In addition, for the setting “gavage GD 6–19, 200 mg/kg”, the “Early resorption (%)” value came to 21.9%, the “Fetal weight (%)” value turned out to be 102%, the “Late resorption (%)” value is listed as 2.0% and the Maternal toxicity classification result is “No”. Further, under “gavage GD 6–19, 200 mg/kg”, the Maternal toxicity findings entry is listed as “NAD”, the “Placenta weight (%)” value worked out at 117%, the “Postimplantation loss (%)” value was found to be 24% and the “Total number of fetuses” value is on record as 74. Also, the “Malformation, Total (skeletal)” value under setting [1] is listed as “Total 0%”. Besides, under “gavage GD 6–19, 600 mg/kg”, the “Early resorption (%)” value was 100%, the “Late resorption (%)” value amounted to 0.0%, the “Maternal body weight (BW)” value stood at 74% and the “Maternal carcass weight (CW)” value was 89%. Besides, under “gavage GD 6–19, 600 mg/kg”, the Maternal mortality stood at 30%, the “Postimplantation loss (%)” value is 100.0** % and the “Total number of fetuses” value was found to be 0. Further, the teratogenic potential result (overall assessment of the in vivo study) is “no teratogenic potential”.
